Square brackets hold non-standard residues; d marks the D form. Ends that are not written are not given here.
Experiments:
Format in all cases: cell-based
WM793 (primary melanoma) = assay: Melanoma growth reduction, 3H-thymidine incorporation (Example 4); settings: 2% tumor medium
Description: (§1) Melanoma cell lines WM-239-A (metastatic melanoma), WM278 (primary melanoma), WM793 (primary melanoma) and WM1158 (metastatic melanoma) were seeded in 24-well plates at a concentration of 7.5×10^4 cells/ml containing 2% tumor medium.
(§2) Peptides (SEQ ID NO:6) and D-(SEQ ID NO:6), in which each amino acid residue is a D-amino residue or a glycine residue, were frozen at -20° C. in […] aliquots at a concentration of 25 mg/ml. Each peptide was then dissolved in sterile distilled water at a dilution of 1:1,000 or 1:5,000 to provide peptide concentrations of 25 μg/ml or 5 μg/ml, respectively. The peptides at the 25 μg/ml or 5 μg/ml concentrations were then added to the plates containing the melanoma cells. The amount of ^3 H-thymidine incorporation for each well was taken on days 1, 3, and 7.

WM278 (primary melanoma) = assay: as above; settings: 2% tumor medium
Description: as §1, §2

[1] = system: WM1158 (metastatic melanoma); assay: as above; settings: 2% tumor medium
Description: as §1, §2

[2] = system: WM-239-A (metastatic melanoma); assay: as above; settings: 2% tumor medium
Description: as §1, §2

melanoma cell line WM793 = assay: Melanoma growth reduction (Example 5); settings: dose 25 μg/ml, 2% tumor media
Description: as §1, §2
(§3) Peptides (SEQ ID NO:10) and D-(SEQ ID NO:10), in which each amino acid is a D-amino acid residue, are tested for % growth reduction of melanoma cell lines WM852 (grown in 2% tumor media or PF media), WM983A (grown in 2% tumor media or PF media), WM793 (grown in 2% tumor media), and WM1985 (grown in PF media) according to the procedure of Example 4, except that only a concentration of 25 μg/ml was employed for (SEQ ID NO:10), and concentrations of 1.0, 2.5, 5.0, 10.0, and 25.0 μg/ml were employed for D-(SEQ ID NO:10).

[3] = system: melanoma cell line WM983A; assay: Melanoma growth reduction (Example 5); settings: dose 25 μg/ml
Description: as §1, §2, §3

[4] = system: melanoma cell line WM1985; assay: Melanoma growth reduction (Example 5); settings: dose 25 μg/ml, PF media
Description: as §1, §2, §3

melanoma cell line WM852 [5] = assay: Melanoma growth reduction (Example 5); settings: dose 25 μg/ml
Description: as §1, §2, §3

melanoma cell line WM852 [6] = assay: 3H-thymidine radioactive counts, melanoma cells (Example 6); settings: 2% tumor media
[7] = system: melanoma cell line SkMe123; assay: as above; settings: 2% tumor media
[8] = system: melanoma cell line WM1158; assay: as above; settings: 2% tumor media
melanoma cell line WM35 = assay: as above; settings: 2% tumor media
[9] = system: melanoma cell line WM983B; assay: as above; settings: 2% tumor media
[10] = system: melanoma cell line WM983A; assay: as above; settings: 2% tumor media
[11] = system: melanoma cell line WM902B; assay: as above; settings: 2% tumor media
[12] = system: melanoma cell line WM1366; assay: as above; settings: 2% tumor media
melanoma cell line WM39 = assay: as above; settings: 2% tumor media
melanoma cell line WM115 = assay: as above; settings: 2% tumor media
melanoma cell line WM8 = assay: as above; settings: 2% tumor media
[13] = system: melanoma cell line WM1791A; assay: as above; settings: 2% tumor media
melanoma cell line WM164 = assay: as above; settings: 2% tumor media
[14] = system: melanoma cell line WM239A; assay: as above; settings: 2% tumor media
melanoma cell line WM973 = assay: as above; settings: 2% tumor media

For “(SEQ ID NO:6): peptide of SEQ ID NO:6, comparator not marked D; possibly the same as (SEQ ID NO:6)-NH2 (GIGKFLKSAKKFGKAFVKILNS; not fully specified) [reference compound]”, the “% Growth Reduction (7 days) WM793” value (WM793 (primary melanoma); dose 5 μg/ml) was 11.6%, the “% Growth Reduction (7 days) WM793” value (WM793 (primary melanoma); dose 25 μg/ml) was 98.0% and the “% Growth Reduction (7 days) WM-278” value (WM278 (primary melanoma); dose 5 μg/ml) was 0%. For the same substance, the “% Growth Reduction (7 days) WM-278” value (WM278 (primary melanoma); dose 25 μg/ml) was 96.0%, the “% Growth Reduction (7 days) WM1158” value ([1]; dose 5 μg/ml) was 0% and the “% Growth Reduction (7 days) WM1158” value ([1]; dose 25 μg/ml) was 98.5%. The “% Growth Reduction (7 days) WM239-A” value ([2]; dose 5 μg/ml) was 0% and the “% Growth Reduction (7 days) WM239-A” value ([2]; dose 25 μg/ml) was 95.8%.

With “(SEQ ID NO:10): peptide of SEQ ID NO:10, comparator not marked D; possibly the same as (SEQ ID NO:10)-NH2 (KKLLKKLKKLLKKL; not fully specified) [reference compound]” the “% Growth Reduction (7 days) WM793-2%” value (melanoma cell line WM793) was 8.3%, the “% Growth Reduction (7 days) WM-983A-2%” value ([3]; 2% tumor media) was 0% and the “% Growth Reduction (7 days) WM983A-PF” value ([3]; PF media) was 60.5%. For the same substance, the “% Growth Reduction (7 days) WM1985-PF” value [4] was 43.0%, the “% Growth Reduction (7 days) WM852-2%” value (melanoma cell line WM852 [5]; 2% tumor media) was 0% and the “% Growth Reduction (7 days) WM852-PF” value (melanoma cell line WM852 [5]; PF media) was 54.0%.

For “D-(SEQ ID NO:6): each amino acid residue is a D-amino residue or a glycine residue; possibly the same as D-(SEQ ID NO:6)-NH2 (G[dI]G[dK][dF][dL][dK][dS][dA][dK][dK][dF]G[dK][dA][dF][dV][dK][dI][dL][dN][dS]; not fully specified)”, the “Radioactive Counts WM852” value (melanoma cell line WM852 [6]; dose 1 μg/ml) was 169000, the “Radioactive Counts WM852” value (melanoma cell line WM852 [6]; dose 5 μg/ml) was 2699 and the “Radioactive Counts WM852” value (melanoma cell line WM852 [6]; dose 25 μg/ml) was 554. The “Radioactive Counts SkMe123” value ([7]; dose 1 μg/ml) was 114846, the “Radioactive Counts SkMe123” value ([7]; dose 5 μg/ml) was 2028 and the “Radioactive Counts SkMe123” value ([7]; dose 25 μg/ml) was 429. The “Radioactive Counts WM1158” value ([8]; dose 1 μg/ml) was 131000, the “Radioactive Counts WM1158” value ([8]; dose 5 μg/ml) was 884 and the “Radioactive Counts WM1158” value ([8]; dose 25 μg/ml) was 2108. The “Radioactive Counts WM35” value (melanoma cell line WM35; dose 1 μg/ml) was 47241, the “Radioactive Counts WM35” value (melanoma cell line WM35; dose 5 μg/ml) was 3187 and the “Radioactive Counts WM35” value (melanoma cell line WM35; dose 25 μg/ml) was 360. The “Radioactive Counts WM983B” value ([9]; dose 1 μg/ml) was 225000, the “Radioactive Counts WM983B” value ([9]; dose 5 μg/ml) was 135 and the “Radioactive Counts WM983B” value ([9]; dose 25 μg/ml) was 115. For the same substance, the “Radioactive Counts WM983A” value ([10]; dose 1 μg/ml) was 335000, the “Radioactive Counts WM983A” value ([10]; dose 5 μg/ml) was 5598 and the “Radioactive Counts WM983A” value ([10]; dose 25 μg/ml) was 313. The “Radioactive Counts WM902B” value ([11]; dose 1 μg/ml) was 49299, the “Radioactive Counts WM902B” value ([11]; dose 5 μg/ml) was 150 and the “Radioactive Counts WM902B” value ([11]; dose 25 μg/ml) was 75. The “Radioactive Counts WM1366” value ([12]; dose 1 μg/ml) was 288000, the “Radioactive Counts WM1366” value ([12]; dose 5 μg/ml) was 1910 and the “Radioactive Counts WM1366” value ([12]; dose 25 μg/ml) was 1692. For the same substance, the “Radioactive Counts WM39” value (melanoma cell line WM39; dose 1 μg/ml) was 27635, the “Radioactive Counts WM39” value (melanoma cell line WM39; dose 5 μg/ml) was 1308 and the “Radioactive Counts WM39” value (melanoma cell line WM39; dose 25 μg/ml) was 273. For the same substance, the “Radioactive Counts WM115” value (melanoma cell line WM115; dose 1 μg/ml) was 222000, the “Radioactive Counts WM115” value (melanoma cell line WM115; dose 5 μg/ml) was 373 and the “Radioactive Counts WM115” value (melanoma cell line WM115; dose 25 μg/ml) was 263. For the same substance, the “Radioactive Counts WM8” value (melanoma cell line WM8; dose 1 μg/ml) was 19226, the “Radioactive Counts WM8” value (melanoma cell line WM8; dose 5 μg/ml) was 248 and the “Radioactive Counts WM8” value (melanoma cell line WM8; dose 25 μg/ml) was 99. For the same substance, the “% Growth Reduction (7 days) WM793” value (WM793 (primary melanoma); dose 5 μg/ml) was 95.6%, the “% Growth Reduction (7 days) WM793” value (WM793 (primary melanoma); dose 25 μg/ml) was 98.4% and the “% Growth Reduction (7 days) WM-278” value (WM278 (primary melanoma); dose 5 μg/ml) was 93.1%. For the same substance, the “% Growth Reduction (7 days) WM-278” value (WM278 (primary melanoma); dose 25 μg/ml) was 96.1%, the “% Growth Reduction (7 days) WM1158” value ([1]; dose 5 μg/ml) was 98.0% and the “% Growth Reduction (7 days) WM1158” value ([1]; dose 25 μg/ml) was 98.8%. For the same substance, the “% Growth Reduction (7 days) WM239-A” value ([2]; dose 5 μg/ml) was 82.0%, the “% Growth Reduction (7 days) WM239-A” value ([2]; dose 25 μg/ml) was 96.3% and the “Radioactive Counts WM1791A” value ([13]; dose 1 μg/ml) was 5655. The “Radioactive Counts WM1791A” value ([13]; dose 5 μg/ml) was 1065, the “Radioactive Counts WM1791A” value ([13]; dose 25 μg/ml) was 456 and the “Radioactive Counts WM164” value (melanoma cell line WM164; dose 1 μg/ml) was 158000. For the same substance, the “Radioactive Counts WM164” value (melanoma cell line WM164; dose 5 μg/ml) was 4143, the “Radioactive Counts WM164” value (melanoma cell line WM164; dose 25 μg/ml) was 331 and the “Radioactive Counts WM239A” value ([14]; dose 1 μg/ml) was 38053. The “Radioactive Counts WM239A” value ([14]; dose 5 μg/ml) was 221, the “Radioactive Counts WM239A” value ([14]; dose 25 μg/ml) was 459 and the “Radioactive Counts WM973” value (melanoma cell line WM973; dose 1 μg/ml) was 81675. For the same substance, the “Radioactive Counts WM973” value (melanoma cell line WM973; dose 5 μg/ml) was 7284 and the “Radioactive Counts WM973” value (melanoma cell line WM973; dose 25 μg/ml) was 770.

Reference: patent publication US5792831A, “Analogues of magainin peptides containing D-amino acids” (priority 1994, dated 1998)
